Measured values taken from patent US12290654B2, “Using alternating electric fields to increase permeability of the blood brain barrier” (Novocure GmbH, priority 2018, dated 2025).

What was measured:
[1] = system: blood brain barrier (rat brain); experiment: Evans Blue accumulation in rat brain after alternating electric fields; type: in vivo, rats
Description: A set of in vivo experiments on rats was also run to quantify the increase in vessel permeability caused by exposure to the alternating electric fields. These experiments used Evans Blue (EB) dye, which is an azo dye that has a very high affinity for serum albumin (molecule size ˜69 kDa). Because of its large molecule size, serum albumin will ordinarily not be able to get past the BBB.
This was accomplished by shaving each rat's head, positioning a first pair of capacitively coupled electrodes on the top and bottom of the rat's head, and positioning a second pair of capacitively coupled electrodes on the left and right sides of the rat's head. A 100 kHz AC voltage was then applied between the top and bottom electrodes for 1 second, followed by a 100 kHz AC voltage applied between the right and left electrodes for 1 second, in a repeating sequence.
Under the conditions indicated in Table 1 and for the times indicated on Table 1, EB was injected intravenously into the tail vein under anesthesia (Once injected, EB immediately binds to Albumin), and the EB was allowed to circulate for 2 hours in all cases. The following steps were then performed: (a) intracardiac perfusion with saline; (b) brains are sliced in four pieces with a brain slicer; (c) pieces were photographed to localize staining and weighted; (d) EB extraction after tissue homogenization with TCA 50% (1:3) and centrifuge and (e) EB quantification at 610 nm. Results are given as μg EB per g tissue.
During the experiment, two animals from group 2 and one animal from group 4 were excluded (disrupted treatment, failure to inject EB into the tail vein). There were no differences between the animals treated with alternating electric fields (groups 1 and 2) and therefore these animals were grouped together. Similarly, there were no differences between sham heat and control animals (groups 3 and 4) and therefore these animals were grouped together.
EB accumulation in these four specific sections was then measured. In addition, a computer simulation was performed to determine the field strength in each of these four sections. […]

[2] = system: blood brain barrier (rat brain); experiment: DCE-MRI contrast agent accumulation in rat brain; type: in vivo, rats
Method: Yet another set of in vivo experiments was performed using Dynamic Contrast Enhanced MRI (DCE-MRI) with intravenous injection of Gadolinium contrast agent (Gd-DTPA, Magnetol, MW 547). In these experiments, test rats were treated with 100 kHz alternating electric fields for 72 h, and control rats were not treated with alternating electric fields for the same period of time. After this 72 h period, the alternating electric field was turned off, the rats were anesthetized, and a series of 60 T1w MRI scans (each of the scans having a duration of 28 seconds) was acquired. The gadolinium contrast agent was injected into the rat's tail vein during the 7th of these 60 scans.
The image analysis for each rat included (1) determining a baseline for each voxel by calculating the mean of the first six T1w MRI scans for each voxel (i.e., the scans prior to the injection of the gadolinium); (2) computing voxel by voxel, the percent signal change (i.e., gadolinium accumulation) over time relative to the baseline; (3) segmenting the brain into anterior, middle, and posterior segments; (4) generating for each of the three segments the mean percent signal change with respect to the baseline over all the voxels in the respective segment and then (5) averaging 4 consecutive time points (i.e. 4 scans) together. Finally, the data from all of the rats within any given group were averaged together. […]

SMILES | average EB accumulation in the rat brain, averaged over all four sections 1-4 ([1]; 100 kHz fields 72 hours vs sham heat/control, p<0.05) | EB accumulation, sections 1, 2 (frontal cerebrum) ([1]; 100 kHz fields 72 h vs sham heat/control, EB i.v., circulated 2 hours, sections where field strength was highest) | EB accumulation, more posterior sections (3, 4) ([1]; 100 kHz fields 72 h vs sham heat/control, EB i.v., circulated 2 hours, sections where field strength was lower) | contrast agent accumulation in the brain tissue (DCE-MRI percent signal change) ([2]; 100 kHz fields 72 h (n=6) vs control rats (n=3), most pronounced in posterior brain) | contrast agent accumulation in the brain tissue (DCE-MRI percent signal change) ([2]; 100 kHz fields 72 hours followed by 96 hours without fields (n=7) vs control+96h (n=3))
Cc1cc(-c2ccc(/N=N/c3ccc4c(S(=O)(=O)O)cc(S(=O)(=O)O)c(N)c4c3O)c(C)c2)ccc1/N=N/c1ccc2c(S(=O)(=O)O)cc(S(=O)(=O)O)c(N)c2c1O [EB, Evans Blue] | higher accumulation | statistically significant increase | smaller increase (that was not statistically significant) |  | 
O=C([O-])CN(CCN(CC(=O)[O-])CC(=O)O)CCN(CC(=O)[O-])CC(=O)O.[Gd+3] [contrast agent, Gd-DTPA] |  |  |  | significantly higher | not significantly different
